Experiment [1] deals with lungs of mice after whole thoracic radiation (WTI). Nature of the experiment: KC protein in whole lung lysate by ELISA post-WTI. The experiment is classed as in vivo. As to conditions: post-WTI 16 Gy; 0.3 mg/kg subcutaneously 1 day before irradiation; FIG. 7A. On the procedure:
(§1) FIGS. 7A-C show TPOm-pretreatment (1 day before irradiation at 0.3 mg/kg body weight by subcutaneous injection) on neutrophil infiltration of mice measured at 7 months post-WTI. […] 400× total magnification. […] Data are shown as means±SE. *P<0.05, ***P<0.0001.
(§2) Methods: C57BL/6 male mice (9-12 weeks old) were administered with the TPOm RWJ-800088 (0.3 mg/kg) or PBS (vehicle) subcutaneously 1 day prior to whole thoracic radiation (WTI) at 16 Gy delivered by x-ray. Mice were sacrificed at 2 weeks and 7 months (n=5/time point/group) post-WTI to collect the lung tissues for various analysis. Groups of mice (n=10/group) exposed to 18 Gy WTI were also subjected to an 8-month survival study.
Methods: Mice were treated as described in Example 1. Whole lung lysate was prepared from left lung tissue at the time of harvest. KC ELISA kit (R&D Systems, #DY453) was used according to manufacturer's instructions. For each sample, 2 replicates were measured for KC protein.
(In general: In an ELISA, binding on a coated surface is turned into a signal by an enzyme label.)

Experiment [2] deals with mice exposed to 18 Gy WTI. In words: 8-month survival study after 18 Gy WTI. In kind it is in vivo, C57BL/6 male mice. Here is the method:
Mice were given a vehicle or TPOm injection (1 mg/kg), 1 day before irradiation (1×) or 1 day before irradiation and 7 days after radiation (2×) (n=10 for irradiated groups, n=5 for naïve). *P<0.05 vs. vehicle treated mice.
as §2

Experiment [3] relates to lungs of mice after whole thoracic radiation (WTI). In words: Myeloperoxidase (MPO) staining of lung sections for neutrophil infiltration post-WTI. In kind it is in vivo. The note with it: post-WTI 16 Gy; 0.3 mg/kg subcutaneously 1 day before irradiation; FIG. 7C. On the procedure:
as §1, §2
At the time of harvest, the right lung was fixed with 10% formalin, then embedded and sectioned at […]. Anti-myeloperoxidase (MPO) antibody was obtained from Abcam (Cambridge, MA, USA). Immunoreactivity was visualized by ImmPACT histochemistry (Vector Labs, Burlingame, CA, USA) with hematoxylin counter staining. For quantitation of MPO+ cells in lung tissue, images were analyzed with ImageJ software (National Institutes of Health); stained cells were counted using the “analyze particles” module to assess positive staining. Data were quantified from 3 fields of 1 section per animal, and 5 animals per group.

The test system is the same in experiment [4]. Nature of the experiment: Protein in bronchoalveolar lavage by bicinchoninic acid assay (BCA) post-WTI. In kind it is in vivo, C57BL/6 male mice. The note with it: 2 weeks post-WTI 16 Gy; 0.3 mg/kg subcutaneously 1 day prior to WTI; p<0.05. Here is the method:
(§3) FIGS. 2A-2B show the effect of TPOm-pretreatment (1 day before irradiation at 0.3 mg/kg body weight by subcutaneous injection) on immune cell infiltration and permeability in the lungs of mice at 14 days post-WTI. […] 200× total magnification.
as §2

Experiment [5] has the same test system. Nature of the experiment: Senescence marker mRNA expression in lungs (qPCR) post-WTI. As to conditions: 7 months post-WTI 16 Gy; 0.3 mg/kg subcutaneously 1 day prior to WTI; p<0.05. In kind it is in vivo, C57BL/6 male mice. On the procedure: FIGS. 4A-4C show the effect of TPOm-pretreatment (1 day before irradiation at 0.3 mg/kg body weight by subcutaneous injection) on senescence gene mRNA and protein expression in lungs of mice at 7 months post-WTI. mRNA and protein levels assessed by qPCR and western blot, respectively. […] Data are shown as means±SE. *P <0.05 vs. vehicle treated mice. […] Expression in the naive group is designated as 1 for comparison.
as §2

The test system is the same in experiment [6]. Nature of the experiment: Collagen deposition in lungs by Trichrome Blue staining post-WTI. The experiment is classed as in vivo, C57BL/6 male mice. The note with it: 7 months post-WTI 16 Gy; 0.3 mg/kg subcutaneously 1 day prior to WTI; p<0.05. On the procedure:
FIGS. 3A-3B show the effect of TPOm-pretreatment (1 day before irradiation at 0.3 mg/kg body weight by subcutaneous injection) on collagen deposition in lungs of mice at 7 months post-WTI. […] 200× total magnification.
as §2

For experiment [7] the test system is unchanged. Nature of the experiment: Proinflammatory chemokine mRNA expression in lungs after whole thoracic radiation (WTI) 16 Gy. In kind it is in vivo, C57BL/6 male mice. As to conditions: 2 weeks post-WTI 16 Gy; 0.3 mg/kg subcutaneously 1 day prior to WTI; p<0.05. On the procedure: Lung data is presented as fold change of chemokine expression normalized to Hprt1 expression (n=5 for Naïve, n=5 for Vehicle (phosphate buffered saline) and TPOm pretreatment). Expression in the naive group is designated as 1 for comparison. Data are shown as means±SE. *P<0.05 vs. vehicle treated mice.
as §2

Experiment [8] shares this test system. In words: H&E staining of lung sections for cellularity and immune infiltration post-WTI. The experiment is classed as in vivo, C57BL/6 male mice. As to conditions: 2 weeks post-WTI 16 Gy; 0.3 mg/kg subcutaneously 1 day prior to WTI. On the procedure: as §3, §2
Experiment [9] has the same test system. In words: Pulmonary density by microCT post-WTI. The experiment is classed as in vivo, C57BL/6 male mice. As to conditions: 7 months post-WTI 16 Gy; 0.3 mg/kg subcutaneously 1 day prior to WTI; p<0.05. On the procedure:
FIGS. 5A-5C show the effect of TPOm-pretreatment (1 day before irradiation at 0.3 mg/kg body weight by subcutaneous injection) on pulmonary density of mice at 7 months post-WTI. Pulmonary density imaged by microCT and measured by microCT analysis software. […] (n=3 for Naïve, n=5 for vehicle and n=4 for TPOm pretreatment). *P <0.05 vs. vehicle treated mice.
as §2

Consider “methoxypolyethyleneglycol20000-propionyl-L-Isoleucyl-L-Glutamyl-Glycyl-L-Prolyl-L-Threonyl-L-Leucyl-L-Arginyl-L-Glutaminyl-L-2-Naphthylalanyl-L-Leucyl-L-Alanyl-L-Alanyl-L-Arginyl-Sarcosyl-Ne-(methoxypolyethyleneglycol20000-propionyl-L-Isoleucyl-L-Glutamyl-Glycyl-L-Prolyl-L-Threonyl-L-Leucyl-L-Arginyl-L-Glutaminyl-L-2-Naphthylalanyl-L-Leucyl-L-Alanyl-L-Alanyl-L-Arginyl-Sarcosyl-)-Lysinamide [TPOm]”, for which the “protein expression of KC in the lung (ELISA)” value in experiment [1] is reported as “significantly reduced in the TPOm (RWJ-800088) group to a level similar to naïve”. The survival in experiment [2] (vehicle 0%, p<0.01) is listed as 40%. For the same substance, the mortality entry in [2] (vs vehicle) is on record as “significantly delayed in mortality”. The “alveolar neutrophil accumulation (MPO staining)” value in experiment [3] is reported as “alveolar neutrophil accumulation in significantly greater numbers than mice treated with TPOm”. The “protein leaked to bronchoalveolar lavage fluid, less than vehicle” value in experiment [4] was found to be 28%. Further, the “mRNA levels of senescence marker p21, lower than vehicle” value in experiment [5] was 52%. The “collagen deposition, lower than vehicle (Trichrome Blue staining)” value in experiment [6] is on record as 31%. Also, in [7], the “mRNA expression of proinflammatory chemokine KC in lungs, lower than vehicle” value stood at 37% and the “mRNA expression of proinflammatory chemokine MCP1 in lungs, lower than vehicle” value was determined as 39%. Besides, the “cellularity by H&E staining” value in [8] was “higher cellularity in vehicle compared to TPOm treated mice”. The “density in lungs by microCT, less than vehicle” value in [9] is reported as 21%.

For the origin of these results see patent publication US20250312417A1, “Methods for Mitigating Lung Injury in Conjunction with Exposure to Radiation and/or Radiation or Radiomimetic Treatments” (Janssen Pharmaceutica NV, priority 2022, published 2025).
